Results taken from PubChem BioAssay AID732 (Emory University Molecular Libraries Screening Center, 2007).
Values joined by “and” are separate entries in the source; they are usually repeats but may differ in a detail not shown here. Equal values may be shown once. Active and inactive are the calls of the source. The rule behind the calls is not given here.

Each compound was assayed on in vivo angiogenesis, blood vessel count (assay: angiogenesis inhibition in living animals, in vivo study, HTS (AID 732;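 note: zebrafish embryos dosed at one day post fertilization; 0% = reference inhibitor and 100% = plate mean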)). Settings: stronger effect = lower value;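 tested at 30 µM in the well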.

**Q.** `CN(C)C/C=C(/c1ccc(Br)cc1)c1cccnc1` was tested. Which vessel count % control did it give?
**A.** 104% (inactive)

**Q.** With `CCOC(=O)C(C)(C)Oc1ccc(Cl)cc1` as the compound, how does the vessel count % control read?
**A.** 55.4% (inactive)

**Q.** How did the vessel count % control turn out when `C[C@@H]1O[C@H](C[N+](C)(C)C)C[C@H]1O` was run?
**A.** 104% (inactive)

**Q.** Which vessel count % control does the source give for `CCCC(C)(COC(N)=O)COC(=O)NC(C)C` (stereo unspecified) here?
**A.** 103% (inactive)

**Q.** Which vessel count % control does the source give for `CN1CCCC1CCOC(C)(c1ccccc1)c1ccc(Cl)cc1` (stereo unspecified) here?
**A.** 67.5% (inactive)

**Q.** How did the vessel count % control turn out when `C[C@@H](Oc1ccc(Oc2cnc3ccc(Cl)cc3n2)cc1)C(=O)O` was run?
**A.** 80.3% (inactive)

**Q.** How did the vessel count % control turn out when `C#CCN(C)[C@@H](C)Cc1ccccc1` was run?
**A.** 74.7% (inactive)

**Q.** How did the vessel count % control turn out when `CCOC(=O)C12CC1/C(=N/O)c1ccccc1O2` (stereo unspecified) was run?
**A.** 104% (inactive)

**Q.** Which vessel count % control does the source give for `CC(C)CC(NP(=O)(O)O[C@@H]1O[C@@H](C)[C@H](O)[C@@H](O)[C@H]1O)C(=O)NC(Cc1c[nH]c2ccccc12)C(=O)O` (stereo partly specified) here?
**A.** 118% (inactive)

**Q.** How did the vessel count % control turn out when `O=[N+]([O-])c1ccc(-c2nc(-c3ccc(F)cc3)c(-c3ccncc3)[nH]2)cc1` was run?
**A.** 124% (inactive)

**Q.** For `COc1ccc(/C=C/C(=O)Nc2ccccc2C(=O)O)cc1OC`, which vessel count % control is on record?
**A.** 100% (inactive)

**Q.** For `COc1ccc2cc([C@H](C)C(=O)O)ccc2c1`, which vessel count % control is on record?
**A.** 101% (inactive)

**Q.** With `O=C1CCC(N2C(=O)c3ccccc3C2=O)C(=O)N1` (stereo unspecified) as the compound, how does the vessel count % control read?
**A.** 108% (inactive)

**Q.** With `C[N+]1(CCCCC[N+]2(C)CCCC2)CCCC1` as the compound, how does the vessel count % control read?
**A.** 114% (inactive)

**Q.** With `Cn1cc(C2=C(c3ccc(Cl)cc3Cl)C(=O)NC2=O)c2ccccc21` as the compound, how does the vessel count % control read?
**A.** 0% (inactive)

**Q.** Which vessel count % control does the source give for `C1CCC(N=C(NC23CC4CC(CC(C4)C2)C3)N2CCOCC2)CC1` here?
**A.** 111% (inactive)

**Q.** How did the vessel count % control turn out when `NCCCC(=O)O` was run?
**A.** 109% (inactive)

**Q.** How did the vessel count % control turn out when `CC1CN(S(=O)(=O)c2cccc3cnccc23)CCN1` (stereo unspecified) was run?
**A.** 97.8% (inactive)

**Q.** Which vessel count % control does the source give for `Nc1ncnc2c1ncn2[C@@H]1O[C@H](C(=O)NC2CC2)[C@H](O)C1O` (stereo partly specified) here?
**A.** 102% (inactive)

**Q.** For `NC[C@@H]1O[C@H](C23CC4CC(CC(C4)C2)C3)Cc2c1ccc(O)c2O`, which vessel count % control is on record?
**A.** 110% (inactive)

**Q.** How did the vessel count % control turn out when `COc1ccc2c(c1O)-c1cccc3c1[C@@H](C2)N(C)CC3` was run?
**A.** 90.5% (inactive)

**Q.** How did the vessel count % control turn out when `Nc1nc2ccc(OC(F)(F)F)cc2s1` was run?
**A.** 77% (inactive)

**Q.** For `COc1cccc(C(=O)NCCN2CCN(c3ccc(Cl)cc3)CC2)c1`, which vessel count % control is on record?
**A.** 66.6% (inactive)

**Q.** Which vessel count % control does the source give for `CCN(CC)CCCCCCCCOC(=O)c1cc(OC)c(OC)c(OC)c1` here?
**A.** 91.4% (inactive)

**Q.** With `C=CCN1C[C@@H](C)N([C@H](c2ccc(C(=O)N(CC)CC)cc2)c2cccc(OC)c2)C[C@@H]1C` as the compound, how does the vessel count % control read?
**A.** 85.2% (inactive)

**Q.** With `Cc1cc(C)c(NC(=O)C[C@H](CC(=O)O)c2cccc3ccccc23)c(C(=O)N2CCC3(CCCC3)CC2)c1` as the compound, how does the vessel count % control read?
**A.** 108% (inactive)

**Q.** `C[C@]12C[C@H](O)[C@H]3[C@@H](CCC4=CC(=O)CC[C@@]43C)[C@@H]1CC[C@@H]2C(=O)CO` was tested. Which vessel count % control did it give?
**A.** 103% (inactive)

**Q.** `O=C(Nc1ccc([N+](=O)[O-])cc1Cl)c1cc(Cl)ccc1O` was tested. Which vessel count % control did it give?
**A.** 0% (inactive)

**Q.** `N#CC(Cc1ccc(O)c(O)c1)C(=O)N1CCc2ccccc21` (stereo unspecified) was tested. Which vessel count % control did it give?
**A.** 132% (inactive)

**Q.** `CNCC[C@@H](Oc1ccc(C(F)(F)F)cc1)c1ccccc1` was tested. Which vessel count % control did it give?
**A.** 113% (inactive)

**Q.** With `CC1=NN=C(c2ccc(N)cc2)c2cc3c(cc2C1)OCO3` as the compound, how does the vessel count % control read?
**A.** 96.1% (inactive)

**Q.** Which vessel count % control does the source give for `NCCS(=O)(=O)O` here?
**A.** 96.7% (inactive)

**Q.** How did the vessel count % control turn out when `COc1ccc2c(c1)c(CC(=O)O)c(C)n2C(=O)c1ccc(Cl)cc1` was run?
**A.** 112% (inactive)

**Q.** For `CCC1(c2ccccc2)C(=O)NCNC1=O`, which vessel count % control is on record?
**A.** 91.4% (inactive)

**Q.** `Nc1nc(N)c2nc(-c3ccccc3)c(N)nc2n1` was tested. Which vessel count % control did it give?
**A.** 109% (inactive)

**Q.** How did the vessel count % control turn out when `CC(=O)OCC1=C(C(=O)O)N2C(=O)[C@@H](NC(=O)CSc3ccncc3)[C@H]2SC1` was run?
**A.** 97.3% (inactive)

**Q.** For `CCCN1CCO[C@@H]2c3cc(O)ccc3OC[C@H]21`, which vessel count % control is on record?
**A.** 69.9% (inactive) and 97.2% (inactive)

**Q.** For `NC(N)=Nc1ccc2[nH]c3c(c2c1)C[C@@]1(O)[C@H]2Cc4ccc(O)c5c4[C@@]1(CCN2CC1CC1)[C@H]3O5`, which vessel count % control is on record?
**A.** 101% (inactive)

**Q.** Which vessel count % control does the source give for `CC(N)(Cc1ccc(O)cc1)C(=O)O` (stereo unspecified) here?
**A.** 105% (inactive)

**Q.** Which vessel count % control does the source give for `COc1ccc(NC(=O)c2ccc(-c3ccc(-c4noc(C)n4)cc3C)cc2)cc1N1CCN(C)CC1` here?
**A.** 93% (inactive)

**Q.** How did the vessel count % control turn out when `Cn1cnc([N+](=O)[O-])c1Sc1ncnc2nc[nH]c12` was run?
**A.** 81.5% (inactive)

**Q.** With `O=C1OC(=O)C2C3CCC(O3)C12` (stereo unspecified) as the compound, how does the vessel count % control read?
**A.** 111% (inactive)

**Q.** With `NNCc1cccc(O)c1` as the compound, how does the vessel count % control read?
**A.** 85.8% (inactive)

**Q.** Which vessel count % control does the source give for `N#C/C(=C\c1ccc(O)c(O)c1)C(=O)NCCc1ccccc1` here?
**A.** 115% (inactive)

**Q.** `CCOC(=O)c1cnc2c(cnn2CC)c1NN=C(C)C` was tested. Which vessel count % control did it give?
**A.** 108% (inactive)

**Q.** How did the vessel count % control turn out when `C[N+](C)(C)CCOC(=O)CBr` was run?
**A.** 95.6% (inactive)

**Q.** Which vessel count % control does the source give for `Nc1nc2c(nc(Br)n2C2OC3COP(=O)(O)O[C@@H]3C2O)c(=O)[nH]1` (stereo partly specified) here?
**A.** 110% (inactive)

**Q.** For `NS(=O)(=O)c1cc2c(cc1Cl)NC=NS2(=O)=O`, which vessel count % control is on record?
**A.** 135% (inactive)

**Q.** For `CO[C@H]1CC=C2CCN3CCC4=C(CC(=O)OC4)[C@]23C1`, which vessel count % control is on record?
**A.** 105% (inactive)

**Q.** `CC(C)(C)[C@]1(O)CCN2C[C@H]3c4ccccc4CCc4cccc(c43)[C@@H]2C1` was tested. Which vessel count % control did it give?
**A.** 71.1% (inactive) and 90% (inactive)

**Q.** Which vessel count % control does the source give for `N#Cc1cc2nc(O)c(O)nc2cc1[N+](=O)[O-]` here?
**A.** 94.9% (inactive)

**Q.** How did the vessel count % control turn out when `Oc1cc2c(c(Cl)c1O)CCNCC2c1ccccc1` (stereo unspecified) was run?
**A.** 111% (inactive)

**Q.** With `CC(N)=NCCCC[C@@H](N)C(=O)O` as the compound, how does the vessel count % control read?
**A.** 86.6% (inactive)

**Q.** `CC12CCC3C(CCC4=C(O)C(=O)CCC43C)C1CCC2=O` (stereo unspecified) was tested. Which vessel count % control did it give?
**A.** 109% (inactive)

**Q.** Which vessel count % control does the source give for `COc1cc(NS(C)(=O)=O)ccc1Nc1c2ccccc2nc2ccccc12` here?
**A.** 106% (inactive)

**Q.** `CC(C)c1ccc2c(c1)c(SC(C)(C)C)c(CC(C)(C)C(=O)O)n2Cc1ccc(Cl)cc1` was tested. Which vessel count % control did it give?
**A.** 99.4% (inactive)

**Q.** Which vessel count % control does the source give for `NCCc1c[nH]c2ccc(O)cc12` here?
**A.** 84.5% (inactive)

**Q.** For `C=CCN1CC[C@]23c4c5ccc(O)c4O[C@H]2/C(=N/NC(=O)c2ccccc2)CC[C@@]3(O)[C@H]1C5`, which vessel count % control is on record?
**A.** 120% (inactive)

**Q.** For `C[C@@H]1O[C@@H](O[C@H]2C[C@@H](O)[C@]3(CO)[C@@H]4C(CC[C@]3(O)C2)[C@@]2(O)CC[C@H](C3COC(=O)C3)[C@@]2(C)C[C@H]4O)[C@H](O)[C@H](O)[C@H]1O` (stereo partly specified), which vessel count % control is on record?
**A.** 104% (inactive)

**Q.** With `O=C(Nc1cccc(C(=O)Nc2ccc(S(=O)(=O)O)c3cc(S(=O)(=O)O)cc(S(=O)(=O)O)c23)c1)Nc1cccc(C(=O)Nc2ccc(S(=O)(=O)O)c3cc(S(=O)(=O)O)cc(S(=O)(=O)O)c23)c1` as the compound, how does the vessel count % control read?
**A.** 88.2% (inactive)

**Q.** How did the vessel count % control turn out when `COC(=O)C1=C(C)NC(C)=C([N+](=O)[O-])C1c1ccccc1C(F)(F)F` (stereo unspecified) was run?
**A.** 92.2% (inactive)

**Q.** With `COc1ccc(Cl)cc1C(=O)NCCc1ccc(S(=O)(=O)NC(=O)NC2CCCCC2)cc1` as the compound, how does the vessel count % control read?
**A.** 94.8% (inactive)

**Q.** `Nc1nc(Nc2ccccc2)nc2c1ncn2[C@@H]1O[C@H](CO)[C@H](O)C1O` (stereo partly specified) was tested. Which vessel count % control did it give?
**A.** 94.3% (inactive)

**Q.** With `OCCN(CCO)c1nc(N2CCCCC2)c2nc(N(CCO)CCO)nc(N3CCCCC3)c2n1` as the compound, how does the vessel count % control read?
**A.** 109% (inactive)

**Q.** `N=c1ccn2c(n1)OC1[C@@H](O)[C@@H](CO)O[C@H]12` (stereo partly specified) was tested. Which vessel count % control did it give?
**A.** 78.4% (inactive)

**Q.** Which vessel count % control does the source give for `CCCCCC[C@@H]([C@@H](C)O)n1cnc2c(N)ncnc21` here?
**A.** 85.8% (inactive)
